Reference: US4748232A, “Peptide production and use thereof” (Suntory Limited, priority 1983, dated 1988)

Experiments:
Male rats = assay: Diuretic and natriuretic action in anesthetized rats (urine collected via bladder cannula); type: in vivo, rat; conditions: 1.21 μ mole, group V
Method: To keep the respiratory tract open, a tracheal cannula (PE-240 Clay-Adams) was inserted into the trachea. An arterial cannula (PE-50) was inserted into a femoral artery for measurement of the blood pressure, and a venous cannula was inserted into a femoral vein for the administration of Ringer's solution. 1.2 ml of Ringer's solution was injected for ten minutes, and subsequently, was constantly infused at a flow rate of 1.2 ml/hour.
A bladder cannula made of silastic tube with an inner diameter of 0.02 inches and an outer diameter of 0.037 inches was inserted into the bladder, and via the cannula, a urine sample was collected into a test tube. The collection of urine was carried out for 30 minutes before administration of the test compound, and every five minutes after the administration.
The control group (group I) was administered 50 μl of physiological saline containing only bacitracin.
Groups I to IV each consisted of three animals, and group V consisted of four animals.

[1] = Immunogenicity and toxicity on administration; type: in vivo
Solubility in solvents = type: physicochemical

| Solubility in solvents (Solubility in solvents; ethyl acetate, butyl acetate, ethyl ether, hexane, petroleum ether, benzene, and chloroform) | Solubility in solvents (Solubility in solvents; methanol, and acetic acid) | Solubility in solvents (Solubility in solvents; water) | SMILES | Urine volume A (Male rats; A: sample collected 5 minutes after administration) [µL/min] | Urine volume B (Male rats; B: sample collected 30 minutes before administration) [µL/min] | toxicity ([1]; gradually hydrolized in a body providing the L-amino acids) | anaphylaxis shock ([1]; repeated administration) | production of antibodies ([1]; repeated administration) |
| --- | --- | --- | --- | --- | --- | --- | --- | --- |
|  |  |  | NS(=O)(=O)c1cc(C(=O)O)c(NCc2ccco2)cc1Cl [Furosemide, furosemide] | 167 ± 28 | 8.6 ± 1.9 |  |  |  |
| insoluble | partially | soluble | CC[C@H](C)[C@@H]1NC(=O)[C@H](CCCNC(=N)N)NC(=O)[C@H](CC(=O)O)NC(=O)[C@H](CCSC)NC(=O)[C@H](CCCNC(=N)N)NC(=O)CNC(=O)CNC(=O)[C@H](Cc2ccccc2)NC(=O)[C@@H](NC(=O)[C@H](CO)NC(=O)[C@H](CO)NC(=O)[C@H](CCCNC(=N)N)NC(=O)[C@H](CCCNC(=N)N)NC(=O)[C@H](CC(C)C)NC(=O)[C@@H](N)CO)CSSC[C@@H](C(=O)N[C@@H](CC(N)=O)C(=O)N[C@@H](CO)C(=O)N[C@@H](Cc2ccccc2)C(=O)N[C@@H](CCCNC(=N)N)C(=O)N[C@@H](Cc2ccc(O)cc2)C(=O)O)NC(=O)CNC(=O)[C@H](CC(C)C)NC(=O)CNC(=O)[C@H](CO)NC(=O)[C@H](CCC(N)=O)NC(=O)[C@H](C)NC(=O)CNC1=O [α-hANP, α-human atrial natriuretic polypeptide] |  |  | little toxicity | does not cause anaphylaxis shock | does not stimulate production of antibodies |
